Consider 11 molecules from ChEMBL document CHEMBL1201862, “PubChem BioAssay data set” (2004).

Among the test systems are MDA-N; NCI/ADR-RES; SR; PC-3; CAKI-1; HCT-116; RPMI-8226; Malme-3M; U-251; Hs-578T; HT-29; UACC-62; HOP-92; 786-0; T47D; SNB-19; CCRF-CEM; NCI-H522.
What all share (experiment): NCI-60 cell line screen, 48 h

SMILES strings stand for the structures.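 Results reflect a 48-hour exposure of cells in 96-well plates to compound at five concentrations. GI50 marks 50% less growth.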 The source made the active and inactive calls. Cut-off read from the data, not from the text of the source: active = GI50 up to about 1.1 µM and inactive = higher.

With `O=C1C(c2ccccc2)=C(c2ccccc2)C1(Cl)Cl`, the GI50 is 2.02 µM (inactive) with MDA-N; 3.2 µM (inactive) with NCI/ADR-RES; 2.04 µM (inactive) in the assay with SR; 4.37 µM (inactive) with PC-3; 2.62 µM (inactive) in the assay on CAKI-1; 1.5 µM (inactive) in the assay with HCT-116. For the same molecule, the GI50 in the assay with RPMI-8226 is 2.11 µM (inactive); with Malme-3M, 2.86 µM (inactive); in the assay on U-251, 2.84 µM (inactive); with Hs-578T, 3.56 µM (inactive); with HT-29 it was 3.15 µM (inactive); in the assay on UACC-62 it was 1.86 µM (inactive). For the same molecule, the GI50 was 2.37 µM (inactive) in the assay with HOP-92; 2.69 µM (inactive) in the assay with 786-0; 3.18 µM (inactive) with T47D; 16.7 µM (inactive) in the assay on SNB-19; 1.01 µM (active) with CCRF-CEM; 2.12 µM (inactive) in the assay with NCI-H522.
`CCOc1cc(C2SCC(=O)N2c2nc3cc4sc(N5C(=O)CSC5c5ccc(O)c(OCC)c5)nc4cc3s2)ccc1O` (stereo not drawn): the GI50 in the assay on MDA-N was 30.5 µM (inactive); with NCI/ADR-RES it was 8.2 µM (inactive); in the assay with SR, 5.85 µM (inactive); in the assay with PC-3, 58.5 µM (inactive); with CAKI-1, > 50.7 µM (inactive); in the assay with HCT-116, 20.9 µM (inactive). The GI50 with RPMI-8226 was 32.5 µM (inactive); in the assay with Malme-3M, > 68.9 µM (inactive); with U-251 it was 26.5 µM (inactive); with Hs-578T, > 47.1 µM (inactive); with HT-29 it was 18.4 µM (inactive); in the assay with UACC-62, 98.6 µM (inactive). In addition, the GI50 is 27.7 µM (inactive) with HOP-92; 31.6 µM (inactive) in the assay with 786-0; 40.2 µM (inactive) in the assay on T47D; 41.3 µM (inactive) in the assay with SNB-19; 4.16 µM (inactive) in the assay on CCRF-CEM; 20.4 µM (inactive) in the assay with NCI-H522.
With `C=CCN(C(=O)OC(C)(C)C)[C@H](C)C(=O)N[C@@H](C)C(=O)OC`, the GI50 in the assay on MDA-N, in the assay with NCI/ADR-RES, in the assay on SR, in the assay on PC-3, in the assay on CAKI-1 and in the assay with HCT-116 was > 100 µM (inactive) throughout. In addition, the GI50 in the assay with RPMI-8226, in the assay on Malme-3M, in the assay with U-251, in the assay on Hs-578T, with HT-29 and in the assay with UACC-62 was > 100 µM (inactive) in each case. The GI50 in the assay on HOP-92 is > 100 µM (inactive); in the assay on 786-0 it was > 100 µM (inactive); in the assay on T47D it was > 100 µM (inactive); with SNB-19, > 100 µM (inactive); in the assay on CCRF-CEM, 36 µM (inactive); in the assay with NCI-H522, > 100 µM (inactive).
As for `Cn1c(NNc2ccccc2)cc(=O)[nH]c1=O`, the GI50 is 20.5 µM (inactive) with MDA-N; 35.8 µM (inactive) in the assay on NCI/ADR-RES; 22.6 µM (inactive) in the assay on SR; 38.6 µM (inactive) in the assay on PC-3; 29.9 µM (inactive) in the assay on CAKI-1; 42.5 µM (inactive) with HCT-116. In addition, the GI50 in the assay on RPMI-8226 was 35.3 µM (inactive); in the assay with Malme-3M, 57.8 µM (inactive); in the assay on U-251 it was 53.5 µM (inactive); with Hs-578T it was > 100 µM (inactive); with HT-29 it was 86.9 µM (inactive); in the assay with UACC-62, 36.1 µM (inactive). The GI50 is 63.8 µM (inactive) in the assay with HOP-92; 20.5 µM (inactive) with 786-0; 30.9 µM (inactive) with T47D; > 100 µM (inactive) in the assay on SNB-19; 20.6 µM (inactive) in the assay with CCRF-CEM; 19.1 µM (inactive) with NCI-H522.
Take `Nc1nc(Cl)cc(NCC2(CO)CCCCC2)n1`: the GI50 in the assay on MDA-N is > 100 µM (inactive); in the assay with NCI/ADR-RES, 39.7 µM (inactive); in the assay with SR it was 68.2 µM (inactive); in the assay on PC-3, 83.4 µM (inactive); with CAKI-1 it was > 100 µM (inactive); in the assay on HCT-116, > 100 µM (inactive). Also, the GI50 in the assay on RPMI-8226 was 97.5 µM (inactive); with Malme-3M, > 100 µM (inactive); with U-251, > 100 µM (inactive); in the assay with Hs-578T, > 100 µM (inactive); with HT-29, > 100 µM (inactive); with UACC-62 it was > 100 µM (inactive). Also, the GI50 with HOP-92 is 56.9 µM (inactive); in the assay on 786-0, > 100 µM (inactive); in the assay with T47D it was 38.5 µM (inactive); in the assay on SNB-19, > 100 µM (inactive); with CCRF-CEM, > 100 µM (inactive); with NCI-H522, > 100 µM (inactive).
For `CCOC(=O)/C(C(N)=O)=C(O)/C(O)=C(\Br)C(=O)c1ccccc1`, the GI50 is 17.5 µM (inactive) in the assay with MDA-N; 25.8 µM (inactive) in the assay with NCI/ADR-RES; 3.68 µM (inactive) in the assay on SR; 17.4 µM (inactive) in the assay with PC-3; 11.1 µM (inactive) in the assay on CAKI-1; 16.4 µM (inactive) in the assay with HCT-116. Further, the GI50 in the assay on RPMI-8226 is 9.25 µM (inactive); in the assay with Malme-3M, 15.1 µM (inactive); in the assay on U-251, 18.2 µM (inactive); with Hs-578T, 20.4 µM (inactive); in the assay with HT-29, 25.9 µM (inactive); in the assay on UACC-62, 17.8 µM (inactive). The GI50 in the assay on HOP-92 was 19.9 µM (inactive); with 786-0, 15.8 µM (inactive); with T47D it was 23.1 µM (inactive); in the assay with SNB-19, 47 µM (inactive); in the assay with CCRF-CEM, 0.979 µM (active); in the assay on NCI-H522, 1.72 µM (inactive).
For the molecule `O=C(Cn1c(=O)oc2ccc(C(=O)c3ccc(F)cc3)cc21)c1ccc([N+](=O)[O-])cc1`, the GI50 in the assay with MDA-N was 21 µM (inactive); with NCI/ADR-RES, 33.8 µM (inactive); in the assay with SR, 12.6 µM (inactive); in the assay on PC-3 it was 22.5 µM (inactive); in the assay on CAKI-1, 47.6 µM (inactive); in the assay on HCT-116 it was 29.6 µM (inactive). Moreover, the GI50 is 22.2 µM (inactive) in the assay on RPMI-8226; 31.8 µM (inactive) in the assay with Malme-3M; 34.3 µM (inactive) in the assay on U-251; 20.4 µM (inactive) in the assay with Hs-578T; 39 µM (inactive) in the assay with HT-29; 34.2 µM (inactive) with UACC-62. The GI50 with HOP-92 was 49.3 µM (inactive); in the assay with 786-0, 33 µM (inactive); in the assay with T47D, 24.7 µM (inactive); with SNB-19, 47.1 µM (inactive); in the assay with CCRF-CEM, 19.1 µM (inactive); in the assay with NCI-H522 it was 18.8 µM (inactive).
Turning to `O=C1NC(=O)C(c2c[nH]c3cc(Br)ccc23)=C1c1cn(C(c2ccccc2)(c2ccccc2)c2ccccc2)cn1`, the GI50 was 10.1 µM (inactive) in the assay on MDA-N; 27.2 µM (inactive) with NCI/ADR-RES; 6.64 µM (inactive) in the assay with SR; 6.19 µM (inactive) in the assay on PC-3; 22.6 µM (inactive) with CAKI-1; 10.5 µM (inactive) with HCT-116. Besides, the GI50 in the assay on RPMI-8226 was 10.1 µM (inactive); in the assay on Malme-3M, 19.5 µM (inactive); with U-251 it was 10.7 µM (inactive); with Hs-578T it was 22.4 µM (inactive); in the assay on HT-29, 9.48 µM (inactive); in the assay on UACC-62, 18.2 µM (inactive). For the same molecule, the GI50 was 13.9 µM (inactive) with HOP-92; 8.85 µM (inactive) in the assay with 786-0; 15.2 µM (inactive) with T47D; 23.9 µM (inactive) in the assay with SNB-19; 5.45 µM (inactive) in the assay on CCRF-CEM; 13.3 µM (inactive) in the assay on NCI-H522.
Take `CSC(=N/C=C/c1ccccc1)SC`: the GI50 in the assay on MDA-N was 55.6 µM (inactive); in the assay with NCI/ADR-RES, > 100 µM (inactive); with SR, > 100 µM (inactive); in the assay with PC-3, 64.3 µM (inactive); in the assay with CAKI-1 it was > 100 µM (inactive); with HCT-116, > 100 µM (inactive). The GI50 is > 100 µM (inactive) with RPMI-8226; > 100 µM (inactive) with Malme-3M; > 100 µM (inactive) with U-251; 68.1 µM (inactive) in the assay on Hs-578T; > 100 µM (inactive) in the assay on HT-29; > 100 µM (inactive) in the assay with UACC-62. The GI50 was > 100 µM (inactive) in the assay with HOP-92; > 100 µM (inactive) in the assay with 786-0; > 100 µM (inactive) with T47D; > 100 µM (inactive) with SNB-19; 98.9 µM (inactive) in the assay on CCRF-CEM; 64 µM (inactive) in the assay with NCI-H522.
For `NS(=O)(=O)c1ccc(/N=N/c2cc3ccccc3c(C(=O)O)c2O)cc1`, the GI50 in the assay with MDA-N is > 100 µM (inactive); in the assay on NCI/ADR-RES it was > 64.1 µM (inactive); in the assay on SR, 2.31 µM (inactive); with PC-3, > 48.3 µM (inactive); with CAKI-1 it was > 100 µM (inactive); with HCT-116, 12.6 µM (inactive). Also, the GI50 is > 100 µM (inactive) in the assay on RPMI-8226; > 56.9 µM (inactive) in the assay with Malme-3M; > 39.9 µM (inactive) in the assay on U-251; > 67.3 µM (inactive) with Hs-578T; > 55.7 µM (inactive) in the assay on HT-29; > 55.7 µM (inactive) in the assay with UACC-62. Also, the GI50 with HOP-92 was 99.1 µM (inactive); in the assay on 786-0 it was > 55.8 µM (inactive); in the assay on T47D it was > 54.1 µM (inactive); with SNB-19 it was > 64.9 µM (inactive); with CCRF-CEM, 78 µM (inactive); in the assay with NCI-H522, > 41 µM (inactive).
For `Cc1cc(C)c2c(=O)n(CN3CC4Nc5ccccc5C4C3)sc2n1` (stereo not drawn), the GI50 in the assay with MDA-N was 19.5 µM (inactive); in the assay with NCI/ADR-RES, 35.6 µM (inactive); in the assay with SR, 23.6 µM (inactive); in the assay with PC-3, 21.3 µM (inactive); in the assay on CAKI-1 it was 21 µM (inactive); with HCT-116 it was 20.4 µM (inactive). Further, the GI50 in the assay on RPMI-8226 was 11.3 µM (inactive); in the assay with Malme-3M it was 11.7 µM (inactive); in the assay with U-251, 31.3 µM (inactive); in the assay on Hs-578T it was 16.6 µM (inactive); with HT-29 it was 21.3 µM (inactive); with UACC-62, 23.8 µM (inactive). The GI50 in the assay on HOP-92 was 38.5 µM (inactive); in the assay with 786-0, 17.2 µM (inactive); with T47D it was 81.8 µM (inactive); in the assay on SNB-19, 65.9 µM (inactive); in the assay with CCRF-CEM, 22 µM (inactive); in the assay with NCI-H522 it was 4.19 µM (inactive).
